Data from patent publication US20050214384A1, “Chromium compositions and methods for using the same for inhibiting drug-induced insulin resistance” (priority 2002, published 2005).
Like-named read-outs stand apart in the source and are kept apart here.

Columns and labels:
rats [1] = details: oral CrCl3; cited from earlier work
rats [2] = details: cited from earlier work
[3] = tested on: subjects taking statin drugs; assay: Clinical trial of chromium picolinate on statin-induced insulin resistance (Example 1); assay type: in vivo, human; details: 400 μg chromium, one capsule a day orally, approximately six months, versus statin drug without chromium supplementation
Description: The effect of a chromium complex in inhibiting drug-induced insulin resistance is evaluated. Specifically, the effects of chromium picolinate on insulin sensitivity and vascular reactivity in subjects taking statin drugs are evaluated.
A clinical trial is initiated which includes approximately 80 male and female subjects between the ages of 35 and 65. The subject population is characterized as individuals suffering from moderate hypercholesterolemia and moderate high blood pressure. All subjects have been diagnosed with hypercholesterolemia. LDLC based on 75th percentile (>140-165 mg/dL) and HDL-C: <30 mg/dL. […]
Study visits are scheduled at the start of the study to record baseline information on the subjects and every two weeks thereafter. The following physiological conditions are measured prior to administration of the supplement as a baseline and at regular intervals during the course of the study: Glycated hemoglobin, fasting insulin, fasting plasma glucose levels, total cholesterol, triglycerides, LDL, HDL, urinalysis (routine), CBC, and serum chemistry, as well as blood pressure and body weight. In addition, insulin sensitivity is measured according to the euglycemic-hyperinsulinemic glucose clamp technique specified by R. A. DeFronzo et al. Glucose Clamp Technique: A Method for Quantifying Insulin Secretion and Resistance, 237 Am. […]

In the case of CC(=O)Oc1ccccc1C(=O)O [aspirin], the “effect on chromium absorption” value (rats [1]) is listed as “facilitated”.

For [Cl][Cr]([Cl])[Cl] [chromium chloride], the toxic effects (rats [2]; levels several thousand times the upper limit of the ESADDI for chromium for humans (based on body weight)) is given as “without toxic effects”.

In the case of chromium picolinate, the toxic effects (rats [2]; rat, in vivo) is listed as “without toxic effects” and the “incidence of drug-induced insulin resistance” value [3] is listed as “lower incidence of drug-induced insulin resistance”.
